Assay results reported in patent US20170266222A1, “MODULATION OF CHRFAM7A FOR ANTI-INFLAMMATORY THERAPIES” (THE REGENTS OF THE UNIVERSITY OF CALIFORNIA, priority 2016, published 2017).
“Also recorded” adds a separate entry of the source.

What was measured:
CHRNA7 gene expression = assay: qPCR of CHRNA7 gene expression in gut epithelial cells treated with LPS; type: cell-based, human; details: 3 hours
Procedure: (§1) All epithelial cancer cell lines were originally purchased from American Type Culture Collection and propagated as instructed. Normal human small intestine epithelial cells (FHs-Int-74) were also obtained from the ATCC (CCL-241). Cells were seeded at 2×10^6 in 6-well tissue culture plates the day before the experiment. As indicated, cells were either harvested directly for total RNA preparation, processed for transient transfection, or treated with LPS (CAT# L4391, Sigma) at 100 ng/ml for 3 hours. At the end of the incubation with LPS, cells were harvested and used for analyses of gene expression.
(§2) Total RNA was prepared using RNeasy kit (Qiagen) and was quantitated using Nanodrop Spectrophotometer. One μg total RNA was reverse transcribed using iScript cDNA synthesis kit (BioRad) in a 20 μl reaction. Of the 20 μl cDNA, one μl was used for RT-PCR or real-time qPCR.
(§3) RT-PCR was performed in a 50 μl reaction containing 45 μl PCR blue mix (Invitrogen), 1 μl of each primer (10 μM), 1 μl cDNA, and 2 μl water. The cycling conditions were: 94° C. for 4 minutes followed by 35 cycles of 94° C. for 30 seconds, 60° C. for 30 seconds, and 72° C. for 60 seconds and a final extension at 72° C. for 5 minutes. Ten μl of each PCR products were resolved on a 2% agarose gel and images were acquired using Alpha Innotech imaging system. Real-time qPCR was performed in a 25 μl reaction containing 12.5 μl 2×CYBR Green PCR Master Mix (BioRad), 0.5 μl of each primer (10 μM), 1 μl cDNA, and 10.5 μl water. PCR cycling conditions were: 95° C. for 10 minutes followed by 45 cycles of 94° C. for 25 seconds, 60° C. for 25 seconds, and 72° C. for 40 seconds. Primer efficiency for CHRFAM7A and CHRNA7 were 100% and 94% respectively. Expression of CHRNA7 and CHRFAM7A was normalized to that of GAPDH using ΔΔCt method.
Primers for CHRNA7 were designed to hybridize with both variant 1 and 2 transcripts of CHRNA7 by selecting sequences present in CHRNA7 but absent from CHRFAM7A for amplification: Sense, 5′-acATGcgctgctcgccggga-3′ (SEQ ID NO:13), Anti-sense, 5′-[…]-3′ (SEQ ID NO:14).

CHRFAM7A promoter [1] = assay: CHRFAM7A promoter luciferase reporter in THP1 cells; type: cell-based, human; details: THP1 cells pre-treated with 100 ng/ml LPS
Source text: (§4) Analyses of the CHRFAM7A promoter: The putative CHRFAM7A promoter region spanning from −2363 to +22 relative to the open reading frame ATG start codon was amplified by PCR of genomic DNA isolated from HEK293 cells. The longest fragment was cloned into pGL4 promoter-less luciferase reporter plasmid (Promega) according to the manufacturers specifications and the resulting plasmid, pGL4-CHRFAM7A (˜2400) was confirmed by DNA sequencing and thereafter referred to f2400 to reflect the size of the fragment. […]
(§5) The fragments generated were cloned into the pGL4 vector to create plasmids f1800, f1000, and f500, which were each sequenced to confirm their identity. These plasmids were then transiently transfected into THP1 cells as described below, and luciferase activity was analyzed 30 hours after transfection following the manufacturer's instructions (Promega). […]
THP1 cells, cultured in RPMI1640 supplemented with 1× Glutamax and 1× Penicillin/Streptomycin, were seeded at 5×10^5 per well in a 24-well plate two hours before transfection. […] The lysate was spun down and 10 μl of the supernatant was used for luciferase assay on POLARstar Omega plate reader (BMG LABTECH). Luciferase activity normalized to protein concentration was expressed as fold changes over that of pGL4 transfected cells.

CHRFAM7A promoter [2] = assay: CHRFAM7A promoter luciferase reporter in FHs cells; type: cell-based, human; details: LPS 100 ng/ml
Source text: as §4, with “The” for “Analyses of the CHRFAM7A promoter: The”, “(2400)” for “(˜2400)”, “F2400” for “f2400”
as §5, with “FHs” for “THP1”
Transfections of FHs cells for luciferase activity: The normal human small intestine FHs cells were cultured in 10% DMEM/F12 supplemented with 1× Glutamax, 1× Penicillin/Streptomyxin, and 30 ng/ml EGF and seeded at 1×10^5 per well in a 12-well plate the day before transfection. […] The lysate was spun down and 10 μl of the supernatant was used for luciferase assay on POLARstar Omega plate reader (BMG LABTECH).

[3] = system: CHRFAM7A/CHRNA7 gene expression; assay: qRT-PCR ratio of CHRFAM7A to CHRNA7 in leukocyte cell lines treated with LPS; type: cell-based, human; details: 100 ng/ml LPS, 3 hours
Source text: All cell lines were originally purchased from ATCC and/or acquired through the UCSD Department of Surgery, Division of Trauma, Burns and Acute Care Surgery Cell Repository. Thawed cells were washed in RPMI culture media containing 10% FCS, the pellet reconstituted in culture media and cells plated into six-well tissue culture plates. All cells were washed 48 hrs later and allowed to grow to 90% confluence and propagated with trypsin digestion as needed. For transduction studies, cells were seeded at 2×10^6 in 6-well tissue culture plates the day before the experiment. As indicated in each experiment, cells were harvested directly from the culture dishes for total RNA preparation, processed for stable or transient transfection, or treated with 100 ng/ml LPS (CAT# L4391, Sigma) for 3 hours. At the end of incubations, cells were harvested, total RNA isolated and the cDNA generated (see below) used for analyses of gene expression.
Total RNA was prepared from cell lysates using the RNeasy kit (Qiagen, San Diego Calif.) and was quantified using a Nanodrop Spectrophotometer. […]
RT-PCR and Quantitative RT-PCR for CHRFAM7A and CHRNA7: RT-PCR was performed in a 50 μl reaction containing 45 μl PCR blue mix (Invitrogen), 1 μl of each primer (10 μM), 1 μl cDNA, and 2 μl water. […]

CHRNA7 and CHRFAM7A = details: undifferentiated human THP1 cells and human macrophages; cited from earlier work
CHRFAM7A gene expression = assay: qPCR of CHRFAM7A gene expression in gut epithelial cells treated with LPS; type: cell-based, human
Procedure: as §1, §2, §3
Primers for CHRFAM7A were designed to hybridize with the variant 1 transcript by selecting sequences that bridge CHRFAM7A and CHRNA7 and therefore unique to CHRFAM7A and not available in FAM7A or CHRNA7A alone: Sense: 5′-ATAGCTGCAAACTGCGATA-3′ (SEQ ID NO:11), Anti-sense: 5′-[…]-3′(SEQ ID NO:12).

lipopolysaccharide [LPS]
increase in CHRNA7 gene expression (CHRNA7 gene expression; CaCo2, KM12, KM20, SW, Colo205 cells, 100 ng LPS): less than two-fold | decrease in CHRNA7 gene expression (CHRNA7 gene expression; FHs and T84 cells, 100 ng LPS): 30% | effect on CHRNA7 gene expression (CHRNA7 gene expression; epithelial cells, 100 ng/ml LPS): little to no effect; also recorded: little effect | luciferase signal of CHRFAM7A 5'UTR fragments (CHRFAM7A promoter [1]): decreased; also recorded: inhibited | luciferase activity profile of CHRFAM7A UTR fragments (CHRFAM7A promoter [2]): very similar profile | ratio of CHRFAM7A to CHRNA7 gene expression [3]: unaffected; also recorded: both genes respond equally | effect on CHRNA7 and CHRFAM7A (CHRNA7 and CHRFAM7A): inhibits | CHRFAM7A gene expression by q-PCR (CHRFAM7A gene expression; FHs cells, 100 ng/ml LPS, 3 hr): increases | relative expression of CHRFAM7A over CHRNA7 (CHRFAM7A gene expression; HCT116T, KM20L and T84 cells, LPS): unchanged | change of CHRFAM7A gene expression (CHRFAM7A gene expression; KM12 and T84 cells, 100 ng/ml LPS): decreased | increase of CHRFAM7A gene expression (CHRFAM7A gene expression; epithelial cells, 100 ng/ml LPS, 3 hour treatment): ~1000 fold | increase of relative expression of CHRFAM7A over CHRNA7 (CHRFAM7A gene expression; gut epithelial cells, depending on the cell line, LPS): 2-200 fold
